Entries after “also recorded” stand apart in the source; their conditions may differ.
How the values were obtained:
[1] = target: T1, KRASG12D interaction with PI3Kα, PI3Kγ, CRAF RBD, RALGDS RA (Homo sapiens, UniProt P01116, G12D); experiment: BRET2 cell assay, KRAS G12D-effector interaction; assay type: cell-based; details: HEK293T cells, 5, 10 and 20 μM, 20 h
T1 construct: expressed in transfected cells; host or cells: HEK293T
Source text: (§1) The BRET ratio corresponds to the light emitted by the GFP2 acceptor constructs (515 nm±30) upon addition of Coelenterazine 400a divided by the light emitted by the RLuc8 donor constructs (410 nm±80). The normalized BRET ratio is the BRET ratio normalized to the DMSO negative and calculated as follows: (BRETcompound/BRETDMSO)×100, where BRETcompound corresponds to the BRET ratio for the compound-treated cells, BRETDMSO to the DMSO-treated cells. Each experiment was repeated at least three times. Statistical analyses were performed using a one-way ANOVA followed by Dunnett's post-tests (*P<0.05, **P<0.01, ***P<0.001, ****P<0.0001). Where error bars are presented, they correspond to mean values±SD of biological repeats (a-c).
(§2) 650,000 HEK293T were seeded in each well of a 6 well plate. 24 hours later, cells were transfected with an appropriated BRET-based RAS biosensor (i.e. RAS-effector) using Lipofectamine 2000 transfection reagent (Thermo-Fisher). […] The final concentrations in the cells were 0, 5, 10 and 20 µM (therefore the intermediate 10× concentrations were 0, 50, 100 and 200 μM. 10 μL of 10× compounds were added in each well of the 96 well plate to 0, 5, 10 and 20 µM final concentrations (with final 0.2% DMSO each). Quadruplicates were performed for each point. Cells were left for an additional 20 hours at 37° C. before the BRET2 signal reading directly after addition of Coelenterazine 400a substrate (10 µM final) to cells (Cayman Chemicals, cat #16157). BRET2 reading was carried out on an Envision instrument (2103 Multilabel Reader, PerkinElmer) with the BRET2 Dual Emission optical module (515 nm±30 and 410 nm±80; PerkinElmer).
(§3) The ability of Example compound 56 to inhibit RAS-effector PPI using the above cell-based RAS-effector BRET2 assay was investigated. […] We determined the effect of compound 56 (labelled Abd-7) on the interaction of KRAS^G12D and with PI3Kα and PI3Kγ, CRAF RAS-binding domain (RBD) and RALGDS RAS-associating domain (RA) compared with the low affinity Reference Compound Abd-2 FIG. 1a). […]

[2] = target: T2, HRASG12V interaction with PI3K, CRAF, RALGDS (Homo sapiens, UniProt P01112, G12V); experiment: BRET2 cell assay, HRAS G12V-effector interaction; assay type: cell-based; details: HEK293T cells, 5, 10 and 20 μM, 20 h
T2 construct: expressed in transfected cells; host or cells: HEK293T
Source text: as §1
(§4) HEK293T cells were transfected 24 hr with plasmids expressing the NRAS Q61H […] and HRAS G12V (B, D) biosensors together with the indicated RBDs of PI3K, CRAF and RALGDS (A, B) or full-length CRAF. […]
as §2, with “plate.” for “plate. 24 hours later, cells were transfected with an appropriated BRET-based RAS biosensor (i.e. RAS-effector) using Lipofectamine 2000 transfection reagent (Thermo-Fisher).”
as §3

[3] = target: T3, NRASQ61H interaction with PI3K, CRAF, RALGDS (Homo sapiens, UniProt P01111, Q61H); experiment: BRET2 cell assay, NRAS Q61H-effector interaction; assay type: cell-based; details: HEK293T cells, 5, 10 and 20 μM, 20 h
T3 construct: expressed in transfected cells; host or cells: HEK293T
Source text: as §1, §4
as §2, with “plate.” for “plate. 24 hours later, cells were transfected with an appropriated BRET-based RAS biosensor (i.e. RAS-effector) using Lipofectamine 2000 transfection reagent (Thermo-Fisher).”
as §3

[4] = tested on: H358 cells (ATCC CRL-5807); experiment: Cell viability assay 1 (CellTiter-Glo), H358 cells; assay type: cell-based; details: Homo sapiens, NCI-H358, 48 h, first value of the cell, read-out: Cell Viability H358 (concentration that decreases cell viability by 50%)
How it was run: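 H358 cells were grown in RPMI-1640 with 10% FCS and 2 mM L-glutamine, plated at 5000 cells/well and allowed to adhere overnight. Compound was added in 0.5% DMSO final for 48 h at 37° C. Viability was read by CellTiter-Glo luminescence, with the 50% viability-reducing concentration derived from dose-response curves.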

[5] = tested on: DLD1 cells (ATCC CCL-221); experiment: Cell viability assay 1 (CellTiter-Glo), DLD1 cells; assay type: cell-based; details: Homo sapiens, DLD-1 cells, 48 h, second value of the cell, read-out: Cell Viability DLD-1 (concentration that decreases cell viability by 50%)
How it was run: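 DLD1 cells grown in RPMI-1640 with 10% FCS, 2 mM L-glutamine, 37 °C, 5% CO2, plated overnight then exposed to compound (0.5% DMSO) for 48 h. Viability by CellTiter-Glo luminescence; value is concentration reducing viability by 50% from dose-response curves.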

[6] = target: T4, GST-human KRas166 (G12V) GPPNHP (Homo sapiens, UniProt P01116, G12V); experiment: KRas small-molecule screening by SPR (Biacore T200); assay type: binding; details: compound 100 uM, 5% DMSO buffer; immobilised GST-KRas166 (G12V) GPPNHP
T4 construct: made in house; host or cells: E. coli C41(DE3)
How it was run: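 GST-KRas166 G12V loaded with GPPNHP, captured on anti-GST CM5 chip at 10,000–15,000 RU, GST reference channel. Compounds run at 100 uM in buffer with 100 mM NaCl, 5 mM MgCl2, 5% DMSO, with DMSO solvent correction; Rmax for 1:1 binding taken as 63 RU.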

Structure (SMILES)	Effect on BRET signal, KRAS G12D/effector interactions [1]	Effect on BRET signal, HRAS G12V/effector interactions [2]	Effect on BRET signal, NRAS Q61H/effector interactions [3]	IC50 [4] [µM]	IC50 [5] [µM]	SPR Response Units [6] [Response Units]
O=C(NCC1COc2ccccc2O1)c1ccco1 (stereo not drawn) [Abd-2, reference compound]	no effect on the BRET signal; also recorded: not with the Abd-2	does not interfere with the BRET signal	does not interfere with the BRET signal	–	–	–
COc1nc(-c2cccc3c2OCCO3)ccc1Nc1cccc(CNCc2cc[nH]n2)c1 [Example 209, [6-(2,3-Dihydro-benzo[1,4]dioxin-5-yl)-2-methoxy-pyridin-3-yl]-(3-{[(1H-pyrazol-3-ylmethyl)-amino]-methyl}-phenyl)-amine]	–	–	–	13.4	14.7	310
COc1nc(-c2cccc3c2OCCO3)ccc1Nc1ccc(CNCC2CCNC(=O)C2)cc1 (stereo not drawn) [Example 201, 4-({4-[6-(2,3-Dihydro-benzo[1,4]dioxin-5-yl)-2-methoxy-pyridin-3-ylamino]-benzylamino}-methyl)-piperidin-2-one]	–	–	–	6.8	10.5	209
COc1nc(-c2cccc3c2OCCO3)ccc1Nc1cccc(CN2CCNCC2)c1 [Example 207, [6-(2,3-Dihydro-benzo[1,4]dioxin-5-yl)-2-methoxy-pyridin-3-yl]-(3-piperazin-1-ylmethyl-phenyl)-amine]	–	–	–	5.8	22	1189
COc1cccc(-c2cccc3c2O[C@H](CNC(=O)c2ccc(OCCN(C)C)cc2)CO3)n1 [Example 40, 4-(2-Dimethylamino-ethoxy)-N-[(R)-8-(6-methoxy-pyridin-2-yl)-2,3-dihydro-benzo[1,4]dioxin-2-ylmethyl]-benzamide]	–	–	–	52	12	58
COc1nc(-c2cccc3c2O[C@H](CNC(=O)C2CCOCC2)CO3)ccc1Nc1cccc(CN(C)C)c1 [Example 112, Tetrahydro-pyran-4-carboxylic acid {(R)-8-[5-(3-dimethylamino-methyl-phenylamino)-6-methoxy-pyridin-2-yl]-2,3-dihydro-benzo[1,4]dioxin-2-ylmethyl}-amide]	–	–	–	18.8	16.3	90
COc1nc(-c2cccc3c2OCCO3)ccc1Nc1cccc(CNc2cccnc2)c1 [Example 143]	–	–	–	17	6.1	67
COc1nc(-c2cccc3c2OCCO3)ccc1Nc1ccc(CNCC2CCN(C)CC2)cc1 [Example 186, [6-(2,3-Dihydro-benzo[1,4]dioxin-5-yl)-2-methoxy-pyridin-3-yl]-(4-{[(1-methyl-piperidin-4-ylmethyl)-amino]-methyl}-phenyl)-amine]	–	–	–	2.4	0.3	636

— patent US12024506B2, “Compounds” (Oxford University Innovation Limited, priority 2018, dated 2024)
